Experimental data published in patent publication US20260275412A1, “A GENE SIGNATURE FOR DIAGNOSING STIMULATOR OF INTERFERON GENES (STING)-ASSOCIATED VASCULOPATHY WITH ONSET IN INFANCY (SAVI)” (INSTITUT NATIONAL DE LA SANTÉ ET DE LA RECHERCHE MÉDICALE, priority 2023, published 2026).

Tests used:
SAVI patients = SAVI patients treated with JAK-inhibitors; cited from earlier work
T cell = conditions: cited from earlier work
STING = test: in vitro model of STING activation: PBMCs with ADUS100 with or without JAK-inhibitor, scRNA-seq; assay type: cell-based, human; conditions: 4 hours
Source text: Sequencing reads were demultiplexed and aligned to the human reference genome (hg38), and counted using the CellRanger Pipeline v6.0. Unfiltered RNA UMI counts were loaded into Seurat v4 for quality control, data integration and downstream analyses. Apoptotic cells and empty sequencing capsules were excluded by filtering out cells with low number of features (Filters were defined based on the batch: STING1: nFeature <300; STING2 and STING3<500; IFN-stim <750) or a mitochondrial content higher than 20%. Data from each sample were normalized using sctransform, before batch correction using Seurat's FindIntegratedAnchors, on the 3,000 most variable features. For the IFN-β dataset, for computational efficiency, integration anchors were determined with a canonical correlation analysis, using all unstimulated samples as reference. For the SAVI dataset, to avoid over-aligning samples, a reciprocal principal component analysis (PCA) was used to find integration anchors. On the resulting integrated datasets, we computed the PCA on the 3000 most variable genes, before computing a UMAP (on 20 PCs for SAVI and 30 PCs for IFN-stimulation). Community detection was performed using the graph-based modularity-optimization Louvain algorithm from Seurat's FindClusters function with a 1.2 resolution. Cell types labels were assigned to resulting clusters based on a manually curated list of marker genes as well as previously defined signatures of the PBMC subtypes.^58 Despite filtering for high quality cells, 11/34 clusters in the SAVI dataset and 7/36 in the IFN-β dataset stood out as poor quality clusters and were removed from further analysis. They represented low UMI cells, dying cells, cycling cells, doublets, or contaminants (progenitor cells, basophils, platelets or megakaryocytes). […] Transcriptomic signatures scores were calculated using Seurat's AddModuleScore function. […]
Human PBMC samples were obtained from Promocell (C-12907 promocell, lot 434Z036). […] Libraries were sequenced on a Novaseq (Illumina), with 26 cycles of read 1, 8 cycles of i7 index and 98 cycles of read 2. […]

[1] = PBMCs from a healthy donor, ADUS100 3 mM, vs unstimulated

| Structure (SMILES) | symptoms of SAVI patients (SAVI patients) | T cell proliferation (T cell) | score of NF-κB activation (STING; [1]) | score of type I IFN response (STING; [1]) | STING-associated signature (21 genes) (STING; monocytes and DCs of stimulated PBMCs) |
| --- | --- | --- | --- | --- | --- |
| C[C@@H]1CCN(C(=O)CC#N)C[C@@H]1N(C)c1ncnc2[nH]ccc12 [Tofacitinib, tofacitinib] | partial improvements of the symptoms | inhibit T cell proliferation | – | – | – |
| Nc1ncnc2c1ncn2[C@@H]1O[C@@H]2COP(=O)([S-])O[C@@H]3[C@H](O)[C@@H](COP([O-])(=S)O[C@H]2[C@H]1O)O[C@H]3n1cnc2c(N)ncnc21.[Na+].[Na+] (some centres unmarked) [ADUS100] | – | – | increased | increased | strong increase |
